One series addresses T1, substance P receptors (Homo sapiens, UniProt P25103).
T1 construct: The receptor was prepared from human lymphoblast cells (IM-9); endogenous in cells; host or cells: IM-9 human lymphoblast cells (membrane preparation)
The series is described as follows: Radioligand receptor binding inhibitory activity using receptor from human lymphoblast cells (IM-9), 125I-BHSP. The settings on record: radioligand 125I-BHSP, 25° C., 30 minutes, read-out: IC50 (concentration necessary to cause 50% inhibition). On the procedure: Radioligand receptor binding inhibitory activity (Binding inhibitory activity using receptor from human lymphoblast cells (IM-9))
The method of M. A. Cascieri et al., [Molecular Pharmacology, vol. 42, p. […] The receptor was prepared from human lymphoblast cells (IM-9). IM-9 cells (2×10^5 cells/mL) were incubated for 3 days (one liter), which was then subjected to centrifugation for 5 minutes at 500×G to obtain cell pellets. […] The residue was washed twice with 30 mL of the above-mentioned buffer, which was then preserved frozen (−80° C.) as a specimen of the receptor.
The specimen was suspended in a reaction buffer (50 mM Tri-HCl buffer (pH 7.4), 0.02% bovine serum albumin, 1 mM phenylmethylsulfonyl fluoride, 2 μg/mL chymostatin, 40 μg/mL bacitracin and 3 mM manganese chloride) to have protein in the concentration of 0.5 mg/mL of protein and 100 μL portion of the suspension was used in the reaction. […] The amount of nonspecific binding was determined by adding substance P at a final concentration of 2×10^−6 M.
After the reaction, using a cell harvester (290 PHD, Cambridge Technology, Inc., U.S.A.), filtration was carried out through a glass filter (GF/B, Whatman, U.S.A.), which was immersed in 0.1% polyethyleneimine for 24 hours and dried. After washing three times with 250 μL of 50 mM Tris-HCl buffer (pH 7.4) containing 0.02% bovine serum albumin, the radioactivity remaining on the filter was determined with a gamma counter.

Structures can show the parent of a compound that is named as a salt.

T1 sequence (P25103 whole entry): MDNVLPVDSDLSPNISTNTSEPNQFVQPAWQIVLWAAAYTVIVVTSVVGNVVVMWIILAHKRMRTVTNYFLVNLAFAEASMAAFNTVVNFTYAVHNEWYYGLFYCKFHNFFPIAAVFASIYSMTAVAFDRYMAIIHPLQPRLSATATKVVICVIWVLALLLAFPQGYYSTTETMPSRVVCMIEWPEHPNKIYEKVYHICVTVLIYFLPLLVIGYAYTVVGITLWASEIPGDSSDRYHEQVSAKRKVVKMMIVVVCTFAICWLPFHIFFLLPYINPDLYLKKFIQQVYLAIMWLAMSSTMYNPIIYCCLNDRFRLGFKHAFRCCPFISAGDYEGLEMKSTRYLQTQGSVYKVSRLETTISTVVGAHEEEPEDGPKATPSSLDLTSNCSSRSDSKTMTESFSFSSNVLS

As usually defined, the melting point is the temperature, or range, at which the solid turns liquid. `Cl.O=C1CC(C(=O)N2CC[C@H](NCc3cc(-c4ccc(Cl)cc4)ccc3OC(F)(F)F)[C@H](c3ccccc3)C2)CC(=O)N1` displayed a melting point of 153 °C.
With `CC1(C)OC(=O)N(CC(=O)N2CC[C@H](NCc3cc(-c4ccc(C#N)cc4F)ccc3OC(F)(F)F)[C@H](c3ccccc3)C2)C1=O` (as salt: hydrochloride) (hydrate or solvate) [Example 97, 3′-[({(3R,4S)-1-[(5,5-dimethyl-2,4-dioxo-1,3-oxazolidin-3-yl)acetyl]-3-phenylpiperidin-4-yl}amino)methyl]-2-fluoro-4′-(trifluoromethoxy)biphenyl-4-carbonitrile], the melting point was in the range of 198 to 200 °C.
On the same count and under the same terms, in the case of `CC1(C)OC(=O)N(CC(=O)N2CC[C@H](NCc3cc(-c4ccc(C#N)cc4)ccc3OC(F)(F)F)[C@H](c3ccccc3)C2)C1=O` (as salt: hydrochloride) (hydrate or solvate) [Example 137, 3′-[({(3R,4S)-1-[(5,5-dimethyl-2,4-dioxo-1,3-oxazolidin-3-yl)acetyl]-3-phenylpiperidin-4-yl}amino)methyl]-4′-(trifluoromethoxy)biphenyl-4-carbonitrile] it was 197 to 199 °C; in that of `O=C1CC(C(=O)N2CC[C@H](NCc3cc(-c4ccc(Cl)cc4F)ccc3OC(F)(F)F)[C@H](c3ccccc3)C2)CC(=O)N1` (as salt: hydrochloride) [Example 132, 4-{[(3R,4S)-4-({[4′-chloro-2′-fluoro-4-(trifluoromethoxy)biphenyl-3-yl]methyl}amino)-3-phenylpiperidin-1-yl]carbonyl}piperidine-2,6-dione], 162 to 164 °C.
As to `N#Cc1ccc(-c2ccc(OC(F)(F)F)c(CN[C@H]3CCN(C(=O)CO)C[C@H]3c3ccccc3)c2)c(F)c1` [Example 100, 2-fluoro-3′-({[(3R,4S)-1-glycoloyl-3-phenylpiperidin-4-yl]amino}methyl)-4′-(trifluoromethoxy)biphenyl-4-carbonitrile], the melting point was in the range of 132 to 134 °C. On substance P receptors, the IC50 came to 0.015 nM.
The corresponding values for `N#Cc1ccc(-c2ccc(OC(F)(F)F)c(CN[C@H]3CCN(C(=O)C(N)=O)C[C@H]3c3ccccc3)c2)c(F)c1` [Example 104, 2-[(3R,4S)-4-({[4′-cyano-2′-fluoro-4-(trifluoromethoxy)biphenyl-3-yl]methyl}amino)-3-phenylpiperidin-1-yl]-2-oxoacetamide] are 142 to 144 °C and 0.019 nM.
With `CC1(C)OC(=O)N(CC(=O)N2CC[C@H](NCc3cc(-c4ccc(C#N)cc4)ccc3OC(F)(F)F)[C@H](c3ccccc3)C2)C1=O` [Example 137, 3′-[({(3R,4S)-1-[(5,5-dimethyl-2,4-dioxo-1,3-oxazolidin-3-yl)acetyl]-3-phenylpiperidin-4-yl}amino)methyl]-4′-(trifluoromethoxy)biphenyl-4-carbonitrile], the IC50 at substance P receptors amounted to 0.042 nM.

The values above are taken from patent US20070149570A1, “Piperidine derivative and use thereof” (priority 2005, published 2007).
